Patent US20220031684A1, “PROPHYLACTIC EFFICACY OF SEROTONIN 4 RECEPTOR AGONISTS AGAINST STRESS” (THE TRUSTEES OF COLUMBIA UNIVERSITY IN THE CITY OF NEW YORK, priority 2019, published 2022)
Structures can show the parent of a compound that is named as a salt.

Experiments:
Assay type in all cases: in vivo
BALB/cJRj mice [1] = experiment: Open field paradigm (OF), acute anxiolytic-like effect; conditions: for percent time spent in Center (OF) vs vehicle: male BALB/cJRj, RS67333 1.5, diazepam 1.5, fluoxetine 18 mg/kg; for time spent in the center of the OF: single dose 1.5 mg/kg, 48 hours after the injection
Description: Motor activity was quantified in four 39×39 cm perpex plastic open field boxes (Vivo-tech/Ugo Basile, Salon de Provence, France). The apparatus was illuminated from the ground with special designed 40×40 cm Infra-red backlights (monochromatic wavelength 850 nm high homogeneity, Vivo-tech, Salon de Provence, France). Activity chambers were monitored by four black and white cameras with varifocal optics and polarizing filters (Vivo-tech, Salon de Provence, France). For optogenetic experiments, optical bandpass filters were specifically selected to improve tracking detection. The whole set-up was controlled using ANYMAZE version 6 video tracking software (Stoelting Co/Vivo-tech, Salon de Provence, France). Dependent measures were time in the center over a 10 min for systemic administration or 6 min test period for optogenetic experiments, total ambulatory distance and ambulatory distance traveled in the center divided by total distance.

BALB/cJRj mice [2] = experiment: Elevated plus maze (EPM), acute anxiolytic-like effect; conditions: single dose 1.5 mg/kg; 24 hours after the injection
BALB/cJRj mice [3] = experiment: Splash Test after single dose; conditions: single systemic dose 1.5 mg/kg, 45 minutes before test
Description: Having shown that RS 67333 was provided with prophylactic properties, we subsequently sought to gain knowledge of this molecule in the long term, i.e. to find out whether the anxiolytic response brought about by RS 67333 is sustainable over time. In order to achieve this, the BALB/cJRj mice were systemically injected with a single dose of RS 67333 (1.5 mg/kg) or diazepam (1.5 mg/kg), 45 minutes before performing the Splash Test. The following day, the mice underwent the EPM without having received another dose of RS, and then at the open field 24 hours later, and, finally, to NSF 24 hours after the open field (FIG. 15A).

BALB/cJRj mice [4] = experiment: Novelty suppressed feeding (NSF), acute anxiolytic-like effect; conditions: for lag for feeding in the NSF: single dose 1.5 mg/kg, 72 hours after the injection
Description: RS67333 (1.5 mg/kg, i.p.), diazepam (1.5 mg/kg, i.p.), fluoxetine (18 mg/kg, i.p.) were injected 45 min before testing in the Elevated Plus Maze (EPM), the Novelty Suppressed Feeding (NSF) or the Open Field (OF) in three independent cohorts of male BALB/cJRj mice.
To ensure the selectivity of the anxiolytic-like effects of RS67333, in a new cohort of male BALB/cJRj mice, GR125487 (1.0 mg/kg, i.p.) dissolved in 0.9% NaCl solution, was injected 15 minutes before RS67333 administration (1.5 mg/kg, i.p.). EPM or NSF occurred 45 min after RS67333 administration (A-S1). Behavioral consequences of the co-administration of GR125487+RS67333 were compared to RS67333 alone, diazepam (1.5 mg/kg, i.p.) fluoxetine (18 mg/kg, i.p.) and vehicle groups (0.9% saline solution, i.p.).
For mPFC drug infusion, two bilateral cannulae (75 μm-diameter silica capillary tubing inserted in 27G stainless steel catheter) were implanted in the mPFC [stereotaxic coordinates in mm from bregma: A=+2.10, L=±0.50, V=−2.60, A, anterior; L, lateral; and V, ventral, according to (A-S10)] under anesthesia (chloral hydrate, 400 mg/kg, i.p.). […] Diazepam (1.5 mg/kg) was used as a positive control.
The NSF is a conflict test that elicits competing motivations: the drive to eat and the fear of venturing into the center of a brightly lit arena. The latency to begin eating is used as an index of anxiety/depression-like behavior, because classical anxiolytic drugs as well as chronic antidepressants decrease this measure. The NSF test was carried out during a 10 min period as previously described (A-S12). Briefly, the testing apparatus consisted of a plastic box (50×50×20 cm), the floor of which was covered with approximately 2 cm of wooden bedding. Twenty-four hours prior to behavioral testing, all food was removed from the home cage. At the time of testing, a single pellet of food (regular chow) was placed on a white paper platform positioned in the center of the box. Each animal was placed in a corner of the box, and a stopwatch was immediately started. The latency to eat (defined as the mouse sitting on its haunches and biting the pellet with the use of forepaws) was timed. Immediately afterwards, the animal was transferred to its home cage, and the amount of food consumed by the mouse in the subsequent 5 min was measured, serving as a control for change in appetite as a possible confounding factor.

CCCCN1CCC(CCC(=O)c2cc(Cl)c(N)cc2OC)CC1.Cl [RS-67,333, 1-(4-amino-5-chloro-2-methoxyphenyl)-3-[1(n-butyl)-4-piperidinyl]-1-propanone HCl]
percent time spent in Center (OF) vs vehicle (BALB/cJRj mice [1]; i.p. 45 min before testing): increase | time spent in the center of the OF (BALB/cJRj mice [1]): increased the time spent in the center | anxiolytic effects in the EPM (BALB/cJRj mice [2]): have not identified the anxiolytic effects expected | grooming time (Splash Test) (BALB/cJRj mice [3]): increased the grooming time | number of grooming episodes (Splash Test) (BALB/cJRj mice [3]): without affecting the number of episodes | latency to feed (NSF) vs vehicle (BALB/cJRj mice [4]; intra-mPFC infusion of RS67333 45 min before testing): decreased latency to feed | latency to feed (NSF) vs vehicle (BALB/cJRj mice [4]; male BALB/cJRj, i.p. 45 min before testing, RS67333 1.5, diazepam 1.5, fluoxetine 18 mg/kg): decreased the latency to feed | lag for feeding in the NSF (BALB/cJRj mice [4]): reduced the lag for feeding

CN1C(=O)CN=C(c2ccccc2)c2cc(Cl)ccc21 [diazepam, Diazepam hydrochloride]
ratio of ambulatory distance in the center divided by total distance (OF) vs vehicle (BALB/cJRj mice [1]; i.p. 45 min before testing, RS67333 1.5, diazepam 1.5 mg/kg): significantly increased | percent time spent in Center (OF) vs vehicle (BALB/cJRj mice [1]; i.p. 45 min before testing): increase | time spent in the center of the OF (BALB/cJRj mice [1]): have not been able to observe any long-term activity | anxiolytic effects in the EPM (BALB/cJRj mice [2]): have not been able to observe any long-term activity | grooming time (Splash Test) (BALB/cJRj mice [3]): not identify any effect in the Splash Test | latency to feed (NSF) vs vehicle (BALB/cJRj mice [4]; male BALB/cJRj, i.p. 45 min before testing, RS67333 1.5, diazepam 1.5, fluoxetine 18 mg/kg, hydrochloride): decreased the latency to feed | lag for feeding in the NSF (BALB/cJRj mice [4]): have not been able to observe any long-term activity
